Data published in patent US20250353835A1, “N-TETRAZOLYL ARYL UREA-BASED DERIVATIVES, PREPARATION METHOD THEREFOR, AND USE THEREOF” (Hangzhou Yirui Pharmaceutical Technology Co., Ltd, priority 2022, published 2025).

Assays:
[1] = tested on: mouse model of ragweed pollen-induced allergic conjunctivitis; assay: Mouse model of ragweed pollen-induced allergic conjunctivitis; assay type: in vivo, Balb/c mice; settings: for Clinical symptom score: twice a day for 14 days, Day 14 within 30 minutes after final challenge
Procedure: SPF-grade Balb/c mice (half male and half female, 6-8 weeks old) were used as experimental animals. On Day 0 and Day 6, ragweed pollen footpad injection was injected subcutaneously into the footpads of mice for sensitization (65 μl per mouse). On Days 10-14, in the model group, eye drop of ragweed pollen was applied to both eyes of the mice (10 μl per mouse) once a day. The eye drops were applied for 5 consecutive days to trigger local allergic conjunctivitis (Wu B, et al., Frontiers in Immunology, 2021, 12:4754). […] On Day 14, within 30 minutes after the final challenge, the ocular clinical symptoms of the mice were observed under a microscope and scored according to the scoring criteria reported by Magone et al. (MerayoLloves J, et al., J Allergy Clin Immunol (1996) 97(5):1129-40; Magone M T, et al., Clin Immunol Immunopathol (1998) 87(1):75-84), the allergic response of the eyes were observed, including 4 indexes: conjunctival edema, conjunctival congestion, eyelid congestion and edema, and tearing. The scores were recorded as 0-3 points according to the severity (including none, mild, moderate and severe). The left eye of the mouse was taken with the eyelid (keeping the conjunctiva intact), fixed with polyformaldehyde, sectioned in paraffin, Hematoxylin-Eosin stained (HE stained), and toluidine blue stained (for detection of mast cells). Photographs were taken to analyze the inflammatory cell infiltration of the conjunctival tissue, and observe whether the mast cells in the conjunctiva aggregated and whether a phenomenon of degranulation occurred. The expression of allergic indicators IL-4 and IgE in the conjunctival tissue was detected by immunohistochemistry.
The mouse eye, including the eyelids (with intact conjunctiva), was sectioned after deparaffinization, and subjected to antigen retrieval and serum blocking.
Diluted IL-4 or IgE antibodies were added and incubated overnight. After incubation with secondary antibodies, DAB staining was performed, followed by counterstaining with hematoxylin. The slides were then mounted and observed under an […], with photographs taken. Semi-quantitative analysis was conducted using Image-J software. Based on the cumulative optical density and regional area values of each image, the average optical density was calculated to detect the positive expression of IL-4 or IgE.

[2] = Liver microsomal metabolism in vitro, rat LM clearance; assay type: in vitro ADME; settings: rat liver microsomes in vitro
Procedure: (§1) In addition, the LC-MS/MS method was used to determine the substrate metabolites of 5 major subtypes of human liver microsomal CYP450 enzymes (including CYP1A2, CYP2D6, CYP2C8, CYP2C9, and CYP3A4). The substrate method was used to determine the activity of human liver microsomal CYP450 enzyme. The established incubation system was verified using known inhibitors to investigate the inhibitory effect of the compound on CYP450 enzyme. For the enzyme induction test, a primary cultured human hepatocyte incubation system was used. 3-methylcholanthrene, phenobarbital, and rifampicin were used as positive control inducers of CYP1A2, CYP2B6, and CYP3A4, and phenacetin, bupropion, and testosterone were used as the substrate for CYP1A2, CYP2B6, and CYP3A4. The CYP450 enzyme activity was calculated by measuring the generation rate of 3 specific substrate metabolites in the incubation solution. Meanwhile, the total RNA was extracted from the human hepatocytes after incubation, and the real-time fluorescence quantitative PCR method was used to determine the mRNA expression level of CYP1A2, […], and CYP3A4. The enzyme activity and mRNA transcription level were used as endpoints to investigate the inductive effect of the compound on human liver P450 isoenzymes CYP1A2, […], and CYP3A4. The liver microsomal metabolism parameters in vitro are shown in Table 2B3 taking Compound 8 as an example.

[3] = target: T1, CYP1A2 (Homo sapiens, UniProt P05177); assay: CYP450 inhibition in human liver microsomes (substrate method, LC-MS/MS); assay type: in vitro ADME; settings: read-out: CYP inhibition IC50 [μM], 1A2
T1 construct: The substrate method was used to determine the activity of human liver microsomal CYP450 enzyme; from tissue; host or cells: human liver microsomes
T1 sequence (P05177 1-516): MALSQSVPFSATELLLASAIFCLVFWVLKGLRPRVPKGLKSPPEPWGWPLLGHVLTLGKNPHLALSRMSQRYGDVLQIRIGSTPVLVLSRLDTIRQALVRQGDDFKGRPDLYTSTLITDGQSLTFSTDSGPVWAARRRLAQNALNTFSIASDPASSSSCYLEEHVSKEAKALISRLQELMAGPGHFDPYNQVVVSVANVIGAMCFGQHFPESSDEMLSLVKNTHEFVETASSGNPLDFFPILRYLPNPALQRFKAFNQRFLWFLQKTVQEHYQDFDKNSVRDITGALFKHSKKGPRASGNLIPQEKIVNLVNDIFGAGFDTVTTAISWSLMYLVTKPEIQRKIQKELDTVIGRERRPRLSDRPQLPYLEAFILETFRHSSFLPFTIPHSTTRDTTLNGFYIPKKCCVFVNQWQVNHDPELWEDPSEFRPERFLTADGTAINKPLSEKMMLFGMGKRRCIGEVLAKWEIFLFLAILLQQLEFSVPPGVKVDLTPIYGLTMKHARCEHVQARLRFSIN
Procedure: as §1

[4] = target: T2, CYP2D6 (Homo sapiens, UniProt P10635); assay: as above; assay type: in vitro ADME; settings: read-out: CYP inhibition IC50 [μM], 2D6
T2 construct: The substrate method was used to determine the activity of human liver microsomal CYP450 enzyme; from tissue; host or cells: human liver microsomes
Procedure: as §1

[5] = target: T3, CYP2C9 (Homo sapiens, UniProt P11712); assay: as above; assay type: in vitro ADME; settings: read-out: CYP inhibition IC50 [μM], 2C9
T3 construct: The substrate method was used to determine the activity of human liver microsomal CYP450 enzyme; from tissue; host or cells: human liver microsomes
Procedure: as §1

[6] = target: T4, CYP2C8 (Homo sapiens, UniProt P10632); assay: as above; assay type: in vitro ADME; settings: read-out: CYP inhibition IC50 [μM], 2C8
T4 construct: The substrate method was used to determine the activity of human liver microsomal CYP450 enzyme; from tissue; host or cells: human liver microsomes
T4 sequence (P10632 1-490): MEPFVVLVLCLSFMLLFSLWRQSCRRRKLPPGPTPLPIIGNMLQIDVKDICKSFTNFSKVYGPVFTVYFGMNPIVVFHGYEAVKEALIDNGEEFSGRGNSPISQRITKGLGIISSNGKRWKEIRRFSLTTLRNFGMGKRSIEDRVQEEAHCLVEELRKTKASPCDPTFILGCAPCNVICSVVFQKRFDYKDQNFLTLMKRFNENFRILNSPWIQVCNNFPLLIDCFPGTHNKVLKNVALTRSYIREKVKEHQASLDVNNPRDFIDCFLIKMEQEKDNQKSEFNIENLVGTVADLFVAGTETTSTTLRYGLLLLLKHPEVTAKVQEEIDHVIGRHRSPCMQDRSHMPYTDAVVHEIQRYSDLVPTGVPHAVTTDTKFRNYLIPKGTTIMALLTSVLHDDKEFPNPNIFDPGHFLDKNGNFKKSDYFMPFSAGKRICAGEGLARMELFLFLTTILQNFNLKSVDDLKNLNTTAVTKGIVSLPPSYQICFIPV
Procedure: as §1

[7] = immunohistochemistry, 2% eye drop

T3 sequence (P11712 whole entry): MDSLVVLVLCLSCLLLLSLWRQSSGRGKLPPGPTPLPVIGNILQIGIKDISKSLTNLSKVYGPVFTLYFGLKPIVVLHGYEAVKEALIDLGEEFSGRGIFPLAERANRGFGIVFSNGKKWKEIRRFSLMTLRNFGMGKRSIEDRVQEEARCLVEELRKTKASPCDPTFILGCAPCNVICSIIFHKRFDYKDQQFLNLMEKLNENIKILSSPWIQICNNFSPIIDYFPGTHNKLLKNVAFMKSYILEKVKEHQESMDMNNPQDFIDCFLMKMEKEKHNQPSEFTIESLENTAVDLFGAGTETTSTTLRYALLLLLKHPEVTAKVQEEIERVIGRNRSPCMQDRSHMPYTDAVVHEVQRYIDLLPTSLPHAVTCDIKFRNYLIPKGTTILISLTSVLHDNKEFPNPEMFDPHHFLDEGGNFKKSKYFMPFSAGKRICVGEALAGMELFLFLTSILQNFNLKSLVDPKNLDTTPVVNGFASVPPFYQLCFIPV
T2 sequence (P10635 whole entry): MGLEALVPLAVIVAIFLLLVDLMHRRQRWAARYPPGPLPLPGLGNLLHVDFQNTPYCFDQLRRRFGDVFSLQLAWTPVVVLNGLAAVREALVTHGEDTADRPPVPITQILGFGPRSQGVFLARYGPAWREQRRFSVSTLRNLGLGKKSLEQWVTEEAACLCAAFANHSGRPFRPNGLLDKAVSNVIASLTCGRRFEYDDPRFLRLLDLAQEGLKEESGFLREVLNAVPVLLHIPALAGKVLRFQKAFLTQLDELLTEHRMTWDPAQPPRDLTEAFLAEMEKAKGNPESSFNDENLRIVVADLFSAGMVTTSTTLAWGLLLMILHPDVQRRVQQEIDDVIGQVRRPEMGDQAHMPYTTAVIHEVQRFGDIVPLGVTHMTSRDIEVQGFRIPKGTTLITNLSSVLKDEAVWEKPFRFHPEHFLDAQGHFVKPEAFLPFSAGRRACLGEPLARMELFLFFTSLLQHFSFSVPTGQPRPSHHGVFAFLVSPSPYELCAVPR

Rat LM clearance [2]: 9.83 mL/min/kg | IC50 [3]: 50 µM | IC50 [4]: 50 µM | IC50 [5]: 50 µM | IC50 [6]: 50 µM
Structure (SMILES): CCOc1ccc(-c2c(F)cc(NC(=O)N3CCC(C(C)(C)C)CC3)cc2-c2nn[nH]n2)cn1 [Compound 8, 4-(tert-butyl)-N-(4-(6-ethoxypyrid-3-yl)-3-fluoro-5-(2H-tetrazol-5-yl)phenyl)piperidine-1-carboxamide]
inflammatory cell infiltration of conjunctival tissue (HE staining; in words) ([1]; 0.5% eye drop): inflammatory cell infiltration was still visible | mast cell degranulation (toluidine blue staining; in words) ([1]; 0.5% eye drop): a few samples showed manifest mast cell degranulation | Clinical symptom score ([1]; 0.5% eye drop): 3.67 ± 0.36 | inflammatory cell infiltration of conjunctival tissue (HE staining; in words) ([1]; 2% eye drop): an improvement in inflammatory cell infiltration | mast cell degranulation (toluidine blue staining; in words) ([1]; 2% eye drop): no mast cell degranulation was observed | Clinical symptom score ([1]; 2% eye drop): 1.75 ± 0.22^♦ | expression of IgE in ocular tissue (average optical density) ([1]; immunohistochemistry, 0.5% eye drop): 0.72±0.12 | expression of IL-4 in ocular tissue (average optical density) [1, 7]: 0.24±0.06 | expression of IgE in ocular tissue (average optical density) [1, 7]: 0.54±0.06
